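Test compounds were applied to cells in 96-well plates for 48 hours at 5 doses. GI50 is the concentration that inhibits growth by half. TGI: total growth inhibition.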 Where only a bound is given, the exact number is not on record here.

What all share (experiment): growth of human tumour cells (NCI), 48 h
Assay [1] has as its system OVCAR-3 ovarian.
Assay [2] deals with UACC-257 melanoma.
In assay [3] the test system is SK-MEL-2 melanoma.
Assay [4] relates to HOP-62 NSCLC.
For assay [5], the system named is HCT-116 colon.
The subject of assay [6] is SF-539 CNS.
For assay [7], the system named is MDA-MB-435.
For assay [8], the system named is DU-145 prostate.
The test system of assay [9] is MDA-MB-231 breast.
Assay [10] concerns T-47D breast.

As for `CC(=O)OC1(C(C)=O)CC2(c3ccccc3)OC1(c1ccccc1)c1ccccc12` (stereo unspecified), the TGI in assay [1] was above 100 µM; in assay [2], 25.1 µM; in assay [3], 83.2 µM; in assay [4], 61.5 µM; in assay [5], above 100 µM; in assay [6], above 100 µM.
On to `OC[C@H]1C[C@](O)(c2ccccc2Cl)[C@@H](c2ccccc2Cl)O1`, for which the GI50 in assay [1] was 19.5 µM; in assay [7] it was 16.3 µM; in assay [2] it was 19 µM; in assay [8], 27.1 µM; in assay [4], 31.7 µM; in assay [9] it was 18.6 µM. Also, the values for the GI50 in assay [5] and in assay [6] were 25.7 µM and 22.4 µM, respectively. Further, the TGI in assay [1] is 47.5 µM; in assay [7] it was 33.3 µM; in [2], 42.6 µM; in assay [8], 74.3 µM; in [4], above 100 µM; in assay [9], 47.6 µM. Moreover, the TGI in assay [5] turned out to be 68.6 µM; in assay [6] it was 50.7 µM.
For `N#C/C(=C/c1ccc([N+](=O)[O-])o1)c1ccccc1`, the TGI in [1], in assay [2], in assay [3], in assay [4], in [5] and in assay [6] was above 100 µM throughout.
On to `O=C1c2c(c3c4ccccc4n(CC4CO4)c3c3[nH]c4ccccc4c23)C(=O)N1Cc1ccccc1` (stereo unspecified), for which the TGI in assay [1], in assay [2], in assay [3], in assay [4], in [5] and in assay [6] was above 100 µM each time.
With `N#Cc1sc2nc3c(c(-c4ccccc4)c2c1N)CCCC3`, the TGI in assay [2] is above 100 µM; in assay [3] it was above 100 µM; in assay [5], above 100 µM; in assay [6], 56.2 µM.
`CCNC(=O)O/N=C1\CCC2[C@@H]3CC=C4C[C@@H](OC(=O)NCC)CC[C@]4(C)C3CC[C@]12C` (stereo partly specified): the TGI in assay [1] was 12.6 µM; in assay [2], 3.33 µM; in assay [3], 9.87 µM; in [4] it was above 100 µM; in [5], 13.7 µM; in [6] it was above 100 µM.
Regarding `COC(=O)CC(=O)OC1C[C@@H]2CCC3C(C)(C)CCC[C@]3(C)C23CC[C@@]1(C)C3` (stereo partly specified), the TGI turned out to be 30.7 µM in [1]; 35.3 µM in assay [2]; 34.1 µM in [4]; 31.4 µM in [5]; 39.1 µM in assay [6].
For `NC1(C(=O)O)CCC(C(=O)O)CC1` (stereo unspecified), the TGI in assay [1], in assay [2], in assay [3], in assay [4], in assay [5] and in assay [6] was above 100 µM throughout.
With `N/N=C1/C(=O)N(c2ccc(Cl)cc2)C(=O)C(=O)C1c1nc2ccccc2s1` (stereo unspecified), the TGI in assay [1], in [2], in [3], in assay [4], in assay [5] and in [6] was above 100 µM in each case.
On to `NN=C1/C(=C\c2ccccc2)CCC/C1=C/c1ccccc1`, for which the TGI in assay [1], in assay [2], in assay [3], in assay [4], in [5] and in assay [6] was above 100 µM throughout.
With `COc1cc(C(=O)/C=C/c2c[nH]c3ccccc23)cc(OC)c1OC`, the GI50 in [10] is 0.0393 µM; in [1], below 0.012 µM; in [3], 0.0392 µM; in [8] it was 0.0296 µM; in [4], 0.0212 µM; in [9], 0.132 µM. Further, the GI50 in assay [5] is below 0.0175 µM; in assay [6], 0.0184 µM. Also, the TGI is 18.4 µM in assay [10]; 0.0488 µM in assay [1]; 19.2 µM in [3]; 30 µM in assay [8]; 29 µM in assay [4]; 12.4 µM in assay [9]. Besides, the TGI in assay [5] came out at 16.9 µM; in assay [6], 0.0965 µM.
With `Nc1ncc(CN2CCCC2)c(-c2ccccc2O)n1`, the TGI in assay [1], in assay [2], in [4], in [5] and in assay [6] was above 750 µM each time.
Take `CCCCCCCCCC(=O)Oc1ccc(/C(=C(/C)c2ccccc2)c2ccc(OCCN3CCCC3)cc2)cc1`: the GI50 in [1] is 8.18 µM; in assay [7] it was 7.47 µM; in [2], 9.23 µM; in [3] it was 9.49 µM; in assay [8], 8 µM; in [4], 8.75 µM. Moreover, the figures for the GI50 in assay [9], in assay [5] and in [6] were 10.2 µM, 8.01 µM and 8.7 µM, respectively. Also, the TGI amounted to 16.1 µM in assay [1]; 14.1 µM in assay [7]; 16.8 µM in [2]; 18.1 µM in assay [3]; 14.8 µM in assay [8]; 17.3 µM in [4]. For the same compound, the TGI is 20.2 µM in assay [9], 15.7 µM in assay [5] and 16.9 µM in assay [6].
As to `CSCSCC(CO)NC(=O)/C=C/c1c(C)[nH]c(=O)[nH]c1=O` (stereo unspecified), the TGI in [1], in [2], in assay [3], in [5] and in assay [6] was above 100 µM throughout.
Consider `CCN(CC)c1ccc(N=Nc2ccc(-c3nc4cccnc4s3)cc2)cc1`, for which the TGI in assay [1], in assay [2], in [3], in [4] and in assay [5] was above 100 µM throughout.

Values taken from PubChem BioAssay (NCI).
